The results in this text go back to ChEMBL document CHEMBL3774369, “Tetrahydroisoquinoline Phenols: Selective Estrogen Receptor Downregulator Antagonists with Oral Bioavailability in Rat” (ACS Med Chem Lett, 2016).

One series has as its target T1, B2 bradykinin receptor (Homo sapiens, UniProt P30411).
T1 sequence (P30411 whole entry): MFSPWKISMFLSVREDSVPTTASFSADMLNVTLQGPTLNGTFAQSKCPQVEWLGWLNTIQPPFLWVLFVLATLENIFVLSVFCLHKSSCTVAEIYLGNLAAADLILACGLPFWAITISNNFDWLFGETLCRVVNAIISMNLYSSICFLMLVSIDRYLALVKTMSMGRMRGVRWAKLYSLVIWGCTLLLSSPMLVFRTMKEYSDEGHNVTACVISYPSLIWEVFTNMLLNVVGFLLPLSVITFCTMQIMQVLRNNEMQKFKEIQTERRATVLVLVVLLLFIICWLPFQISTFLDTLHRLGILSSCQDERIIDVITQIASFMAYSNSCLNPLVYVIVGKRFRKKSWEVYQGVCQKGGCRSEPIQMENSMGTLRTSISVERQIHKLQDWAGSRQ
Put plainly: Inhibition of recombinant human bradykinin receptor 2 expressed in CHO cells. The class given is cell-based.

The nature of the next series: physchem. Conditions: buffer, pH 7.4.
A short description of series [1]: Half life in rat at 0.5 mg/kg, iv. The class given is ADME, organism-based. Conditions: in vivo.
For another series, the target named is T2, Adenosine receptor A1 (Homo sapiens, UniProt P30542).
T2 sequence (P30542 whole entry): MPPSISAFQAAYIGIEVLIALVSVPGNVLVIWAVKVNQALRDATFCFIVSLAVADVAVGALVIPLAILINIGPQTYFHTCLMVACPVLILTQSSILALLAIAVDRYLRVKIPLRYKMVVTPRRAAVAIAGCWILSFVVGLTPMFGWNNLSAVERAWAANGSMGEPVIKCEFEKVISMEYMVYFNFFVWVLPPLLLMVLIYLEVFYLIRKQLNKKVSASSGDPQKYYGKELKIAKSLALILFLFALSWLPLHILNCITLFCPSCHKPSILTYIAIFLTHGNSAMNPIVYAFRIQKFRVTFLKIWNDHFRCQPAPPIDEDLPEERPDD
The series can be described thus: Inhibition of recombinant human adenosine receptor A1 expressed in CHO cells. The class given is cell-based.

A short description of series [2]: Percentage unbound in human plasma by equilibrium dialysis method. The class given is ADME, cell-free. Background: Equilibrium dialysis compares concentrations on both sides of a semipermeable membrane.
Series [3] in a line: Clearance in rat at 0.5 mg/kg, iv or 1 mg/kg, po. The class given is ADME, organism-based. The following applies: in vivo.
Series [4] has as its target Voltage-gated inwardly rectifying potassium channel KCNH2 (Homo sapiens, UniProt Q12809). The series can be described thus: Inhibition of human ERG tail current by plate-based planar patch clamp system. For orientation: In patch-clamp work, channel activity is measured electrically.
Series [5] is described as follows: Intrinsic clearance in human hepatocytes assessed per 10^6 cells. The class given is ADME, cell-based, Hepatocyte. The following applies: read-out: CLH.
Another series addresses Mu-type opioid receptor (Homo sapiens, UniProt P35372). The series can be described thus: Inhibition of human recombinant mu1 opioid receptor expressed in HEK293 cells. Type of series: cell-based.
Series [6] is described as follows: Half life in rat at 1 mg/kg, po. The class given is ADME, organism-based. The following applies: in vivo.
Series [7] can be described thus: Volume of distribution at steady state in rat at 0.5 mg/kg, iv or 1 mg/kg, po. The class given is ADME, organism-based. Conditions: in vivo, read-out: Vdss.
Series [8] can be described thus: Intrinsic clearance in Han Wistar rat hepatocytes assessed per 10^6 cells. Conditions: read-out: CLH. The class given is ADME, cell-based, Hepatocyte.
Series [9] is described as follows: Inhibition of cytochrome P450 (unknown origin). Type of series: ADME, Homo sapiens.
The nature of the next series: in vivo. The following applies: rat, po, 1 mg/kg.
Series [10] can be described thus: Solubility of compound in aqueous phosphate buffer at pH 7.4 after 24 hrs. The class given is physicochemical.
Series [11] in a line: Percentage unbound in Han Wistar rat plasma by equilibrium dialysis method. Type of series: ADME, cell-free.

Chain of Voltage-gated inwardly rectifying potassium channel KCNH2 (Q12809 whole entry): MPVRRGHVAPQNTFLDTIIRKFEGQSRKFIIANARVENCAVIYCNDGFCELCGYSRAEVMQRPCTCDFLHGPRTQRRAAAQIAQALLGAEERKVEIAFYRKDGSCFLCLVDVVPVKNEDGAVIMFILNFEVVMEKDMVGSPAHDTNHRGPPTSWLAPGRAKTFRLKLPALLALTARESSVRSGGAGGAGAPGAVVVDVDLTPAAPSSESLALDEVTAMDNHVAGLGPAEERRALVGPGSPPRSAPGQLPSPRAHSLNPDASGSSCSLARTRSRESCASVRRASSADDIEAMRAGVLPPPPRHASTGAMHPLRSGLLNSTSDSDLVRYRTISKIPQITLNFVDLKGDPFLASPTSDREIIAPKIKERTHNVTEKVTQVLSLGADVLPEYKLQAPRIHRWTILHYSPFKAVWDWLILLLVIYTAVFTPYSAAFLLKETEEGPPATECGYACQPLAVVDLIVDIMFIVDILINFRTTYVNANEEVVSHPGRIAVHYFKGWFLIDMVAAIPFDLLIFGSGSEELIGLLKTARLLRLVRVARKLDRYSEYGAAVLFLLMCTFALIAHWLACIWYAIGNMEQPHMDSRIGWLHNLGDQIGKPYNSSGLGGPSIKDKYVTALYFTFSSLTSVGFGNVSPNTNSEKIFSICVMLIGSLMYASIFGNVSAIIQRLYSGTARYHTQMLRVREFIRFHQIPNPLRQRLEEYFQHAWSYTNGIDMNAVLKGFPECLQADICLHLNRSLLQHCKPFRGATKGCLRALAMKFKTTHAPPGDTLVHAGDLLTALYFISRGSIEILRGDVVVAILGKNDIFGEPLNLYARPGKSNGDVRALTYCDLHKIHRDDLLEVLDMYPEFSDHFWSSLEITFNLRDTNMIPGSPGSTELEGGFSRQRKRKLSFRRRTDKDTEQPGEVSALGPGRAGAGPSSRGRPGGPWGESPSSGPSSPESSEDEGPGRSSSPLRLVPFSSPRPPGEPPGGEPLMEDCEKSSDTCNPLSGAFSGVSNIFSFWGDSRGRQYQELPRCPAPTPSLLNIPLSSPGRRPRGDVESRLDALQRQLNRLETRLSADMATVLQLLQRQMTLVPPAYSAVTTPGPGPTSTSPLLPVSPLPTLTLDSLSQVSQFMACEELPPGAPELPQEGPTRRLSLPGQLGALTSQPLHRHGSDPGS
Chain of Mu-type opioid receptor (P35372 whole entry): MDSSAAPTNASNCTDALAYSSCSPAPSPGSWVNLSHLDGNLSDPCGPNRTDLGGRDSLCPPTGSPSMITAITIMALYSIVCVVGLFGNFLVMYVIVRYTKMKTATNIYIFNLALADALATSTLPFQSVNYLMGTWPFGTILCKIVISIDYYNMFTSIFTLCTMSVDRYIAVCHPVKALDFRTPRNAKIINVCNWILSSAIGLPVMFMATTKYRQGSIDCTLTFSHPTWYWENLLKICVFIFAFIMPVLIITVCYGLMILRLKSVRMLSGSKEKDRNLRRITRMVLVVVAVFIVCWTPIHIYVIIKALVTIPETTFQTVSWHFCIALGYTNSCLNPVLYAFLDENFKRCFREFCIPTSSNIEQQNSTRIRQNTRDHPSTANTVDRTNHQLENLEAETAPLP

As usually defined, the IC50 is the concentration that gives 50% inhibition. In general, logD refers to the decadic logarithm of the distribution of all forms, ionised or not, between an organic phase and buffer at a given pH. Low readings indicate a more hydrophilic compound, high ones a more lipophilic compound. Usually half-life stands for the time needed for the level to fall by half in the phase considered. Read a low half-life as fast loss. By fraction unbound is commonly meant free concentration divided by total concentration. Low values mean little free substance, high ones much free substance. Broadly, the bioavailability is the share of a dose that reaches the circulation, judged against a reference dose that is usually intravenous. A lower bioavailability goes with poor availability. A word on the solubility: it is how much of the substance goes into solution per volume. On to `CC(C)CN1[C@H](c2ccc(/C=C/C(=O)O)cc2)c2ccc(O)cc2C[C@H]1C`, for which the 50% inhibitory concentration (IC50) at B2 bradykinin receptor was 20 µM; on Adenosine receptor A1 it was 29 µM; in [4] it was over 30 µM; on Mu-type opioid receptor, 12 µM; in series [9], over 30 µM. For the same compound, the logD in “physchem” stood at 1.7. The half-life in series [1] is 0.2 h; in [6] it was 3.9 h. For the same compound, the fraction unbound in [2] was determined as 0.07; in [11], 0.075. Further, the clearance in series [3] came out at 49 mL/min/kg. Moreover, the hepatocyte CLint was 33 µL/min/1e6 cells in series [5] and 22 µL/min/1e6 cells in [8]. Besides, the Vd in [7] is 0.6 L/kg. In the series “in vivo”, this compound returned a bioavailability of 86%. The same compound yielded a solubility at 24 h in [10] of over 1500 µM.

`CC(C)CN1[C@H](c2ccc(/C=C/C(=O)O)cc2)c2ccc(O)cc2CC1(C)C` showed a logD in the series “physchem” of 1.5. For the same compound, the half-life was 5.8 h in series [1] and 7.4 h in [6]. For the same compound, the figures for the free fraction (fraction unbound) in series [2] and in series [11] were 0.035 and 0.11, respectively. Also, the clearance in [3] is 21 mL/min/kg. The hepatocyte CLint amounted to 6 µL/min/1e6 cells in series [5] and 7 µL/min/1e6 cells in [8]. Also, the Vd in series [7] was found to be 5.9 L/kg. This compound returned a bioavailability in the series “in vivo” of 66%.
